Test results as given in publication PMC10149257, “Substrate recognition and proton coupling by a bacterial member of solute carrier family 17” (The Journal of Biological Chemistry, 2023).
Changes are numbered by the printed parent chain.

How the values were obtained:
Sialin [1] = biological target: T1, Sialin (Rattus norvegicus, UniProt Q5Q0U0); test: inhibition of 3H-glucuronic acid uptake by unlabelled compound in transfected HEK293T cells; type: cell-based; conditions: room temperature, 4 min, Ringer's solution; self-competition with labelled compound
T1 construct: gene Slc17a5
T1 sequence (Q5Q0U0 1-495): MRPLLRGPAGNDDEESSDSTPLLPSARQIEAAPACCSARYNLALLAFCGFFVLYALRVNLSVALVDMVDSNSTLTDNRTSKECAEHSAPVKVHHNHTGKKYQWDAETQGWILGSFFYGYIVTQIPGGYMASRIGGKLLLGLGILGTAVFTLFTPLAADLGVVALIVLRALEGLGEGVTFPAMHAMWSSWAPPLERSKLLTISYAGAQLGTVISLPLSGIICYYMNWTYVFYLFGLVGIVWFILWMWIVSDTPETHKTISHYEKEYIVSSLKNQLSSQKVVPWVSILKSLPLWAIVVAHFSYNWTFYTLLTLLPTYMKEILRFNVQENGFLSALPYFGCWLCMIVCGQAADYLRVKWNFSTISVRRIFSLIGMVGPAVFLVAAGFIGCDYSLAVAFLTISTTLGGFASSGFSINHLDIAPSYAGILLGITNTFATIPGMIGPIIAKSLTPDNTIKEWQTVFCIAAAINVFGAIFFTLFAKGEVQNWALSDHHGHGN

Sialin [2] = biological target: T2, Sialin (Rattus norvegicus, UniProt Q5Q0U0, Y54F, form not given); test: as above; type: cell-based; conditions: room temperature, 4 min, Ringer's solution; self-competition with labelled compound
T2 construct: gene Slc17a5
T2 sequence (Q5Q0U0 1-495 Y54F): T1 sequence (Q5Q0U0 1-495) with Y54F

[3] = test system: T3, O=C(O)[C@H](O)[C@@H](O)[C@@H](O)[C@H](O)CO; test: cells, lysate or membranes; type: cell-based, Escherichia coli; conditions: 150 mM KCl, pH 6, 30 °C, 30 s, H+ cotransport, labelled compound
T3 construct: full length, C-terminal modified decahistidine tag, pBAD; expressed in dgoT-deleted E. coli (Keio dgoT727(del)::kan)

[4] = substrate: O=C(O)[C@H](O)[C@@H](O)[C@@H](O)[C@H](O)CO; test: cells, lysate or membranes; type: cell-based, Escherichia coli; conditions: 150 mM KCl, pH 6, 30 °C, 20 s, H+ cotransport, labelled compound

`O=C(O)[C@H]1OC(O)[C@H](O)[C@@H](O)[C@@H]1O` (stereo partly shown) [glucuronic acid] was tested, and the IC50 (Sialin [1]) was roughly 2000 µM and the IC50 (Sialin [2]) was roughly 3000 µM.

Molecule DgoT (Escherichia coli; Y44F) has a Km [3] of 22.8 ± 7.7 µM.

B1: DgoT (Escherichia coli) (protein)
chain: MVSGFAMPKIWRKLAMDIPVNAAKPGRRRYLTLVMIFITVVICYVDRANLAVASAHIQEEFGITKAEMGYVFSAFAWLYTLCQIPGGWFLDRVGSRVTYFIAIFGWSVATLFQGFATGLMSLIGLRAITGIFEAPAFPTNNRMVTSWFPEHERASAVGFYTSGQFVGLAFLTPLLIWIQEMLSWHWVFIVTGGIGIIWSLIWFKVYQPPRLTKGISKAELDYIRDGGGLVDGDAPVKKEARQPLTAKDWKLVFHRKLIGVYLGQFAVASTLWFFLTWFPNYLTQEKGITALKAGFMTTVPFLAAFVGVLLSGWVADLLVRKGFSLGFARKTPIICGLLISTCIMGANYTNDPMMIMCLMALAFFGNGFASITWSLVSSLAPMRLIGLTGGVFNFAGGLGGITVPLVVGYLAQGYGFAPALVYISAVALIGALSYILLVGDVKRVG
notes: full length, C-terminal modified decahistidine tag, pBAD; expressed in dgoT-deleted E. coli (Keio dgoT727(del)::kan)
B1 gave a Km [4] of 1.97 ± 1.1 µM.
